Experimental findings from ChEMBL document CHEMBL1147990 (Bioorg Med Chem, 2007) are described below.

Each structure is given as a SMILES string.

One may read the Kd as the concentration at which binding is half-saturated. Low readings indicate higher affinity, high ones lower affinity.

The target in the test is Carbonic anhydrase 5A, mitochondrial (Homo sapiens, UniProt P35218). Put plainly: Inhibition of human carbonic anhydrase 5A.
Chain of Carbonic anhydrase 5A, mitochondrial (P35218 whole entry): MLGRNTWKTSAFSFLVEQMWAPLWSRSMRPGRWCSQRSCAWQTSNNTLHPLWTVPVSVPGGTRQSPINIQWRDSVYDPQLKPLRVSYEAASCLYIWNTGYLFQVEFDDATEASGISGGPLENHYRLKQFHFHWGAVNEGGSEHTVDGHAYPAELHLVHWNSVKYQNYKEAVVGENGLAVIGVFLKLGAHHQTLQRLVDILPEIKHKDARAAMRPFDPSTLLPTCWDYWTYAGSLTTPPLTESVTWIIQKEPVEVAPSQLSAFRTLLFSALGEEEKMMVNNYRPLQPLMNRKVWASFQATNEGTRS

`CC1(C)O[C@@H]2[C@@H](CO[C@@]3(COS(N)(=O)=O)OC(C)(C)O[C@@H]23)O1` [TOPIRAMATE] registered a dissociation constant (Kd) of 0.0254 µM.
